Measured values taken from patent US20200197526A1, “REFILLABLE DRUG DELIVERY DEVICES AND METHODS OF USE THEREOF” (President and Fellows of Harvard College, priority 2014, published 2020).

Columns and labels:
[1] = tested on: DNA-conjugated calcium-alginate gels; experiment: In vitro binding of fluorescent oligonucleotides to DNA-conjugated calcium alginate gels (FIG. 2); settings: alginate-(T)20 calcium gel; phosphate buffer with 1 mM calcium chloride
[2] = tested on: MDA-MB-231 xenograft tumors; experiment: Xenograft tumor study with drug refilling; type: in vivo, J:Nu mice; settings: 120 μg doxorubicin per animal IV (FIG. 5C)
Description: All animal experiments were performed according to established animal protocols. Tumors were created by injecting 10^6 MDA-MB-231 cells (American Type Culture Collection, VA) combined with Matrigel (BD Biosciences, CA) to a total volume of 200 μL (100 μL PBS and 100 μL Matrigel) into the hind limbs of 8 week old J:Nu (Foxn1^nu/Foxn1^nu) mice (Jackson Labs, ME). 35 days following tumor inoculation tumors were injected with alginate gels. 20 mg/mL alginate conjugated to DNA (thioT-SH or unconjugated) was mixed with doxorubicin (1.6 mg drug per mL of gel), then crosslinked with 4% wt/v CaSO4 (1.22 M) and then 50 μL of gel were injected into tumors with a 23-gauge needle. 2, 3, 4, and 5 weeks after initial tumoral gel injection, mice were injected retro-orbitally with 100 μL 0.5% DNA-conjugated alginate carrying doxorubicin (5% oxidized alginate, thioA-SH, Dye-750, 160 μg Dox-hydrazide=120 μg Dox). Throughout the study, tumor area was measured twice per week with digital calipers in two dimensions and the product of the two dimensional values was used to approximate tumor area. […]
The breast cancer MDA-MB-231 model was chosen because it is a slow-growing tumor, widely used to test chemotherapeutic strategies. […] The ability of targeted therapy to reduce tumor size was assessed by monitoring the change in tumor size in the three days following each IV administration. […]

TTTTTTTTTTTTTTTTTTTT-FAM [(T)20]
binding of fluorescently-labeled oligonucleotides to gel surface [1]: little binding

AAAAAAAAAAAAAAAAAAAA-FAM [(A)20]
binding of fluorescently-labeled oligonucleotides to gel surface [1]: bound to the gel surface in a sequence-specific manner

COc1cccc2c1C(=O)c1c(O)c3c(c(O)c1C2=O)C[C@@](O)(C(=O)CO)C[C@@H]3O[C@H]1C[C@H](N)[C@H](O)[C@H](C)O1 [doxorubicin]
change in tumor size in the three days following each IV administration [2]: continued to grow
